Here are results for 5 compounds from patent publication US5656308A, “Non-reducing oligosaccharide with neotrehalose structure, and its production and uses” (Kabushiki Kaisha Hayashibara Seibutsu Kagaku Kenkyujo, priority 1993, dated 1997).

In the data set the test system is mice. Description: Acute toxicity in mice upon oral administration. The data set is classed as in vivo. As to the method:
High-purity β-maltosyl α-glucoside, α-maltosyl β-glucoside, β-maltotriosyl α-glucoside, α-maltotriosyl β-glucoside and β-maltosyl α-maltoside prepared by the method in Experiment 2 were tested for acute toxicity in mice upon oral administration.

Turning to `OC[C@H]1O[C@H](O[C@@H]2O[C@H](CO)[C@@H](O[C@H]3O[C@H](CO)[C@@H](O[C@H]4O[C@H](CO)[C@@H](O)[C@H](O)[C@H]4O)[C@H](O)[C@H]3O)[C@H](O)[C@H]2O)[C@H](O)[C@@H](O)[C@@H]1O` [β-maltotriosyl α-glucoside, O-α-D-glucopyranosyl-(1→4)-O-α-D-glucopyranosyl-(1→4)-β-D-glucopyranosyl α-D-glucopyranoside], the “acute toxicity (in words)” value is listed as “less toxic” and the “death with maximum administrable dose” value is “no death was observed”.

For the compound `OC[C@H]1O[C@@H](O[C@H]2O[C@H](CO)[C@@H](O[C@H]3O[C@H](CO)[C@@H](O[C@H]4O[C@H](CO)[C@@H](O)[C@H](O)[C@H]4O)[C@H](O)[C@H]3O)[C@H](O)[C@H]2O)[C@H](O)[C@@H](O)[C@@H]1O` [α-maltotriosyl β-glucoside, O-α-D-gluco- pyranosyl-(1→4)-O-α-D-glucopyranosyl-(1→4)-α-D-glucopyranosyl β-D-glucopyranoside], the “acute toxicity (in words)” value is given as “less toxic” and the “death with maximum administrable dose” value is listed as “no death was observed”.

`OC[C@H]1O[C@H](O[C@H]2[C@H](O)[C@@H](O)[C@H](O[C@H]3O[C@H](CO)[C@@H](O[C@H]4O[C@H](CO)[C@@H](O)[C@H](O)[C@H]4O)[C@H](O)[C@H]3O)O[C@@H]2CO)[C@H](O)[C@@H](O)[C@@H]1O` [β-maltosyl α-maltoside, O-α-D-glucopyranosyl-(1→4)-β-D-glucopyranosyl α-D-maltoside]: the “acute toxicity (in words)” value is “less toxic” and the “death with maximum administrable dose” value is given as “no death was observed”.

As to `OC[C@H]1O[C@@H](O[C@H]2O[C@H](CO)[C@@H](O[C@H]3O[C@H](CO)[C@@H](O)[C@H](O)[C@H]3O)[C@H](O)[C@H]2O)[C@H](O)[C@@H](O)[C@@H]1O` [α-maltosyl β-glucoside, O-α-D-glucopyranosyl-(1→4)-α-D-glucopyranosyl β-D-glucopyranoside], the “acute toxicity (in words)” value is recorded as “less toxic” and the “death with maximum administrable dose” value is given as “no death was observed”.

For the compound `OC[C@H]1O[C@H](O[C@@H]2O[C@H](CO)[C@@H](O[C@H]3O[C@H](CO)[C@@H](O)[C@H](O)[C@H]3O)[C@H](O)[C@H]2O)[C@H](O)[C@@H](O)[C@@H]1O` [β-maltosyl α-glucoside, O-α-D-glucopyranosyl-(1→4)-β-D-glucopyranosyl α-D-glucopyranoside], the “acute toxicity (in words)” value was “less toxic” and the “death with maximum administrable dose” value was “no death was observed”.
